Reference: patent US10413541B2, “Oxabicycloheptanes and oxabicycloheptenes for the treatment of depressive and stress disorders” (LIXTE BIOTECHNOLOGY, INC., priority 2015, dated 2019)
Like-named read-outs stand apart in the source and are kept apart here.

How the values were obtained:
PP2A = PP2A (Homo sapiens, UniProt P67775); settings: cited from earlier work
C57Bl/6J mice = assay: Forced swim test after FsE; type: in vivo; settings: for FsE-driven impairment in the forced swim test (depressive-like phenotype): LB100 ip 6-8 h after FsE, 7 days after FsE
Protocol: (§1) The inescapable shock procedure was previously described in Stamatakis and Stuber 2012. Briefly, we placed mice into standard mouse behavioral chambers (Imetronics) equipped with a metal grid floor. We let them to habituate at the new environment for 5 m. In a 20 m session animals received either 19 or 0 unpredictable foot shocks (1 mA, 500 ms) with an interstimulus interval of 30, 60 or 90 s. We anesthetized mice for patch-clamp electrophysiology 1 h, 24 h, 7 d, 14 d or 30 d after the session ended.
(§2) For LB treatment experiments, mice were injected with LB (1.5 mg/Kg i.p.) or saline 6-8 hours after the FsE. The effects of the treatment on the LHb excitability and GABAB-GIRKs currents as well as the behavioural assay were assessed at day 1 or 7. For both electrophysiology and behaviour once treated the animal were housed in groups of 4-6 and let undisturbed until the day of the test.
Forced swim test was conducted under normal light condition as previously described (Meye, Valentinova, Lecca et al 2015). Mice were placed in a cylinder of water (temperature 23-25° C.; 14 cm in diameter, 27 cm in height for mice) for six min. The depth of water was set to prevent animals from touching the bottom with their hind limbs. Animal behavior was videotracked from the top (Viewpoint, France). The latency to the first immobility event and the immobility time of each animal spent during the test was counted online by two independent observer blind of the animal treatments. Immobility was defined as floating or remaining motionless, which means absence of all movement except motions required to maintain the head above the water.

cancer cells = settings: cited from earlier work; for Anti-cancer activity when used alone: mouse model systems (Lu et al. 2009a)
[1] = system: GABAB-GIRK currents in LHb neurons; type: cell-based, mice; settings: LB100 0.1 μM in the bath; for I-baclofen current: mean±s.e.m.
LHb neurons [2] = assay: In vivo LB100 treatment after FsE, LHb neuronal excitability (input-output curve) in slices; parameters: species or system mice; settings: LB100 1.5 mg/kg ip 6-8 h after FsE
Protocol: as §1
(§3) For the Okadaic acid (OA) and the CaMKII inhibitor KN93 experiments, respectively 100 nM of OA or 10 μM of KN93 were added in the internal solution. For the PP2A inhibitor LB100 experiments, LB100 (0.1 μM) was applied in the bath. Miniature excitatory postsynaptic currents (mEPSCs) were recorded in voltage-clamp mode at −60 mV in presence of bicuculine (10 μM) and TTX (1 μM). Miniature inhibitory postsynaptic currents (mIPSCs) were recorded (−60 mV) in presence of NBQX (20 μM) and TTX (1 μM). EPSCs and IPSCs were evoked through an ACSF filled monopolar glass electrode placed 200 μm from the recording site in the stria medullaris. AMPA:NMDA ratios of evoked-EPSC were obtained by AMPA-EPSC −60 mV/NMDA-EPSCs at +40 mV. Rectification Index (RI) was computed by […]-60/AMPA-EPSC+40. For the experiments in which high-frequency stimulation trains were used to determine presynaptic release probability, QX314 (5 mM) was included in the internal solution to prevent the generation of sodium spikes. Current-clamp experiments, were performed by a series of current steps (negative to positive) injected to induce action potentials (5-10 pA injection current per step, 800 ms).
as §2

LHb neurons [3] = assay: Current-clamp excitability (evoked action potentials, input-output curve) of LHb neurons in slices; type: cell-based, mice; settings: LB100 0.1 μM in the bath
Protocol: Animals were anesthetized with Ketamine/Xylazine (50 mg/10 mg Kg-1 i.p.; Sigma-Aldrich, France). The preparation of LHb-containing brain slices was done in bubbled ice-cold 95% O2/5% CO2-equilibrated solution containing (in mM): cholineCl 110; glucose 25; NaHCO3 25; MgCl2 7; ascorbic acid 11.6; Na+-pyruvate 3.1; KCl 2.5; NaH2PO4 1.25; CaCl2 0.5. Sagittal slices (250 μm) were stored at room temperature in 95% O2/5% CO2-equilibrated artificial cerebrospinal fluid (ACSF) containing (in mM): NaCl 124; NaHCO3 26.2; glucose 11; KCl 2.5; CaCl2 2.5; MgCl2 1.3; NaH2PO4 1. Recordings (flow rate of 2.5 ml/min) were made under an Olympus-BX51 microscope (Olympus, France) at 32° C. Currents were amplified, filtered at 5 kHz and digitized at 20 kHz. Access resistance was monitored by a step of −4 mV (0.1 Hz). Experiments were discarded if the access resistance increased more than 20%.
The internal solution to measure GABAB-GIRK currents and neuronal excitability contained 140 mM potassium gluconate, 4 mM NaCl, 2 mM MgCl2, 1.1 mM EGTA, 5 mM HEPES, 2 mM Na2ATP, 5 mM sodium creatine phosphate, and 0.6 mM Na3GTP (pH 7.3), with KOH. When we measured the synaptic inhibitory or excitatory release the internal solution contained (in mM): CsCl 130; NaCl 4; MgCl2 2; EGTA 1.1; HEPES 5; Na2ATP 2; Na+-creatine-phosphate 5; Na3GTP 0.6, and spermine 0.1. The liquid junction potential was −3 mV. For cell-attached recordings the internal solution consisted in ACSF.
as §3

[4] = system: GABAB-GIRK currents in LHb neurons; assay: In vivo LB100 treatment after foot-shock exposure (FsE), I-baclofen recorded in LHb slices; parameters: species or system mice; settings: for FsE-induced decrease in I-baclofen (CTRL vs FsE): 7 days after FsE; for FsE-induced I-baclofen attenuation (CTRL vs FsE): one day after FsE
Protocol: as §1
Cell-attached recordings in ACSF were performed in GΩ seal with a Vc=0 and Hc=0. Whole-cell voltage clamp recordings were achieved to measure GABAB-GIR currents in presence of Bicuculine (10 μM), NBQX (20 μM) and AP5 (50 μM). […] GABAB-GIRK currents were confirmed by antagonism with either 10 μM of CGP54626, a specific GABAB antagonist or 1 mM Ba^2, a selective inhibitor of inward rectifiers. For the GTPγS experiment, 100 μM of GTPγS was added to the internal solution in place of Na3GTP.
as §2

[5] = LB-100 ip 6-8 h after FsE, FST 7 days after FsE
[6] = LB100 1.5 mg/kg ip 6-8 h after FsE, 1.5 mg/kg
[7] = LB100 1.5 mg/kg ip 6-8 h after FsE, listed as LB-100, 1.5 mg/kg

PP2A, sequence (P67775 whole entry): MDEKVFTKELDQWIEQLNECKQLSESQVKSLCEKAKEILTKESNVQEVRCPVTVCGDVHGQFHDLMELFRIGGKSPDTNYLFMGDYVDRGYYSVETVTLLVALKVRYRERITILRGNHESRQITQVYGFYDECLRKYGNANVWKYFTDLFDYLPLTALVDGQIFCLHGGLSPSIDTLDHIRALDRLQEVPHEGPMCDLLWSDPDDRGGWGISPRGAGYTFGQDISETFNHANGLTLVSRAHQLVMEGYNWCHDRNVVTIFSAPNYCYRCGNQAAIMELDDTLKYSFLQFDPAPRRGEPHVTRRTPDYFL
PP2A, sequence (P30153 whole entry partner): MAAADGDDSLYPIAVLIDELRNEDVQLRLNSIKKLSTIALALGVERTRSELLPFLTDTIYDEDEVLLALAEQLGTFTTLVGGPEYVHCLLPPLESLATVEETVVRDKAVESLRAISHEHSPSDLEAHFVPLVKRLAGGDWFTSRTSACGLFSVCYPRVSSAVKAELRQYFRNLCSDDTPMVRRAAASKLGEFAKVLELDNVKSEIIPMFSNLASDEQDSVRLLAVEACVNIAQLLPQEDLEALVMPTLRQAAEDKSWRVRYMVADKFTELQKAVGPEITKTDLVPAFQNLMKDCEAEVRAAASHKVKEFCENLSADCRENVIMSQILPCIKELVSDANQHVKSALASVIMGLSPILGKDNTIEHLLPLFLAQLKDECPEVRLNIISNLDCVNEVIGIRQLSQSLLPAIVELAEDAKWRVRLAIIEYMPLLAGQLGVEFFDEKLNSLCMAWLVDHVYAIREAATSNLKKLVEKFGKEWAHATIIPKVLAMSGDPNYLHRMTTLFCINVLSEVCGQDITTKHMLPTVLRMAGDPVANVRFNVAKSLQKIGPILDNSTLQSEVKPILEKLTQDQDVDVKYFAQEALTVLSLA

In the case of `CN1CCN(C(=O)C2C(C(=O)O)[C@H]3CC[C@@H]2O3)CC1` (some centres unmarked) [LB100], the “Duration of inhibition of PP2A activity” value (PP2A; 1.5 mg/Kg (Lu et al., 2009b)) is listed as “about 12 hours”, the “Time of peak of PP2A-inhibiting activity” value (PP2A; 1.5 mg/Kg (Lu et al., 2009b)) is listed as ~8 h and the PP2A inhibition (PP2A; in vitro in human cancer cells and in xenografts of human tumor cells in mice when given parenterally) is listed as “inhibitor of PP2A”. For the same compound, the “FsE-driven impairment in the forced swim test (depressive-like phenotype)” value (C57Bl/6J mice) was “sufficient to rescue the impairment”, the “FsE-driven impairment in the forced swim test (depressive-like phenotype)” value (C57Bl/6J mice; listed as LB-100) was “behavioral normalization” and the “Latency to the first immobility, control vs FsE group” value (C57Bl/6J mice; [5]) was “comparable”. For the same compound, the “Total immobility, control vs FsE group” value (C57Bl/6J mice; [5]) was “comparable”, the “Toxicity in combination with standard cytotoxic anti-cancer drugs” value (cancer cells; in vivo) was “without observable increase in toxicity” and the “Anti-cancer activity when used alone” value (cancer cells) was “has anti-cancer activity”. The “Anti-cancer activity when used alone” value (cancer cells; listed as LB-100) was “inhibits the growth of cancer cells”, the “Potentiation in vivo of anti-tumor activity of standard cytotoxic anti-cancer drugs” value (cancer cells; with temozolomide, doxorubicin, docetaxel) was “significantly potentiates” and the “FsE-induced inhibition of GABAB-GIRK currents (I-baclofen CTRL vs FsE)” value [1] was “sufficient to rescue”. The I-baclofen current ([1]; slices from CTRL mice) was 88.41±18.64 pA, the I-baclofen current ([1]; slices from FsE mice) was 85.09±0.67 pA and the “FsE-induced inhibition of GABAB-GIRK currents (I-baclofen CTRL vs FsE)” value ([1]; listed as LB-100) was “comparable”. For the same compound, the “LHb neuronal excitability, input-output curve CTRL vs FsE” value (“LHb neuronal excitability … vs FsE” for short) (LHb neurons [2]; 7 days after, 1.5 mg/kg) was “able to abolish the increase in excitability”, the “LHb neuronal excitability … vs FsE” value (LHb neurons [2]; 7 days after, listed as LB-100, 1.5 mg/kg) was “normalized” and the “LHb neuronal excitability … vs FsE” value (LHb neurons [2]; one day after, 1.5 mg/kg) was “did not show any difference”. For the same compound, the “LHb neuronal excitability … vs FsE” value (LHb neurons [2]; one day after, listed as LB-100, 1.5 mg/kg) was “normalized”, the “FsE-induced hyperexcitability of LHb neurons (input-output curve, CTRL vs FsE)” value (LHb neurons [3]) was “completely abolished” and the “FsE-induced hyperexcitability of LHb neurons (input-output curve, CTRL vs FsE)” value (LHb neurons [3]; listed as LB-100) was “comparable to control conditions”. For the same compound, the I-baclofen current ([4]; LB100 1.5 mg/kg ip 6-8 h after FsE protocol, recorded one day after, CTRL mice) was 93.88±18.37 pA, the “FsE-induced decrease in I-baclofen (CTRL vs FsE)” value [4, 6] was “able to revert” and the “FsE-induced decrease in I-baclofen (CTRL vs FsE)” value [4, 7] was “comparable”. The “FsE-induced I-baclofen attenuation (CTRL vs FsE)” value [4, 6] was “not present”, the “FsE-induced I-baclofen attenuation (CTRL vs FsE)” value [4, 7] was “comparable” and the I-baclofen current ([4]; LB100 1.5 mg/kg ip 6-8 h after FsE, recorded one day after, FsE mice) was 97.00±18.05 pA. For the same compound, the I-baclofen current ([4]; single injection of LB100 6-8 hours after the shock protocol, recorded 7 days later, CTRL mice) was 95.54±30.00 pA and the I-baclofen current ([4]; single injection of LB100 6-8 hours after the shock, recorded 7 days later, FsE mice) was 92.97±14.84 pA.
